# How the values were obtained:
# Assay in all cases: Binding assay
# Conditions in all cases: smilagenin 1 μM
# [1] = target: T1, Growth Hormone Secretagogue (GHS, Ghrelin) (Homo sapiens, UniProt Q92847)
# T1 construct: host or cells: tissue or cell homogenate (not specified)
# Protocol: (§1) The receptor binding was investigated using the following method: Sarsasapogenin was incubated with tissue or cell homogenate that expressed the receptor of interest and a known concentration a radiolabelled compound with affinity for the receptor of interest. After the incubation period the non-bound radiolabelled compound was removed and the amount of specific binding was quantified. The amount of specific binding in the presence and absence of sarsasapogenin were compared and the percent inhibition of the binding of the radiolabelled compound by sarsasapogenin was calculated. The source of the receptor, the incubation conditions, the radiolabelled compound used varied depending on each specific assay.
# (§2) Using the same methods as described above, the binding of smilagenin (1 μM) to the receptors listed in Table 2 below, and the effect of smilagenin on the activity of the enzymes listed in Table 2 below, were investigated.
# Adrenergic α1A = Adrenergic α1A (Rattus norvegicus, UniProt P43140)
# Protocol: as §1, §2
# GABAB1B = target: T2, GABAB1B (Homo sapiens, UniProt Q9UBS5)
# T2 construct: host or cells: tissue or cell homogenate (not specified)
# Protocol: as §1, §2
# Galanin GAL1 = target: T3, Galanin GAL1 (Homo sapiens, UniProt P47211)
# T3 construct: host or cells: tissue or cell homogenate (not specified)
# Protocol: as §1, §2
# Histamine H4 = Histamine H4 (Homo sapiens, UniProt Q9H3N8)
# Protocol: as §1, §2
# Calcium Channel N-Type = Calcium Channel N-Type (Rattus norvegicus, UniProt Q02294)
# Protocol: as §1, §2
# Chemokine CXCR1 (IL-8RB) = Chemokine CXCR1 (IL-8RB) (Homo sapiens, UniProt P25025)
# Protocol: as §1, §2
# Dopamine D5 = Dopamine D5 (Homo sapiens, UniProt P21918)
# Protocol: as §1, §2
# GABAB1A = target: T4, GABAB1A (Homo sapiens, UniProt Q9UBS5)
# T4 construct: host or cells: tissue or cell homogenate (not specified)
# Protocol: as §1, §2
# Urotensin II = target: T5, Urotensin II (Homo sapiens, UniProt Q9UKP6)
# T5 construct: host or cells: tissue or cell homogenate, not specified
# Protocol: as §1, §2
# Muscarinic M1 = target: T6, Muscarinic M1 (Homo sapiens, UniProt P11229)
# T6 construct: host or cells: tissue or cell homogenate, not specified
# Protocol: as §1, §2
# Adensonine A1 = Adensonine A1 (Homo sapiens, UniProt P30542)
# Protocol: as §1, §2
# Adensonine A3 = Adensonine A3 (Homo sapiens, UniProt P0DMS8)
# Protocol: as §1, §2
# Interleukin IL-6 = Interleukin IL-6 (Homo sapiens, UniProt P08887)
# Protocol: as §1, §2
# [2] = target: T7, Vasoactive Intestinal Peptide, VIP1 (Homo sapiens, UniProt P32241)
# T7 construct: host or cells: tissue or cell homogenate, not specified
# Protocol: as §1, §2
# Tachykinin NK2 = Tachykinin NK2 (Homo sapiens, UniProt P21452)
# Protocol: as §1, §2
# [3] = target: Platelet Activating Factor (PAF) (Homo sapiens, UniProt P25105)
# Protocol: as §1, §2
# Oestrogen (ERα) = target: T8, Oestrogen (ERα) (Homo sapiens, UniProt P03372)
# T8 construct: host or cells: tissue or cell homogenate (not specified)
# Protocol: as §1, §2
# Adrenergic α1B = Adrenergic α1B (Rattus norvegicus, UniProt P15823)
# Protocol: as §1, §2
# Leptin = Leptin (Mus musculus, UniProt P48356)
# Protocol: as §1, §2
# Adrenomedullin AM1 = Adrenomedullin AM1 (Homo sapiens, UniProt O60895+Q16602)
# Protocol: as §1, §2
# [4] = target: Leukotriene, Cysteinyl CysLT2 (Homo sapiens, UniProt Q9NS75)
# Protocol: as §1, §2
# Orphanin ORL1 = Orphanin ORL1 (Homo sapiens, UniProt P41146)
# Protocol: as §1, §2
# [5] = target: Thyrotropin Releasing Hormone (TRH) (Rattus norvegicus, UniProt Q01717)
# Protocol: as §1, §2
# Tachykinin NK1 = Tachykinin NK1 (Homo sapiens, UniProt P25103)
# Protocol: as §1, §2
# [6] = target: 5-Hydroxytryptamine, 5-HT2B (Homo sapiens, UniProt P41595)
# Protocol: as §1, §2
# [7] = target: T9, G Protein-Coupled Receptor GPR8 (Homo sapiens, UniProt P48146)
# T9 construct: host or cells: tissue or cell homogenate (not specified)
# Protocol: as §1, §2
# Adrenergic β1 = Adrenergic β1 (Homo sapiens, UniProt P08588)
# Protocol: as §1, §2
# Sigma σ1 = Sigma σ1 (Homo sapiens, UniProt Q99720)
# Protocol: as §1, §2
# Cannabinoid CB2 = Cannabinoid CB2 (Homo sapiens, UniProt P34972)
# Protocol: as §1, §2
# Neuropeptide Y Y2 = Neuropeptide Y Y2 (Homo sapiens, UniProt P49146)
# Protocol: as §1, §2
# Prostanoid CRTH2 = Prostanoid CRTH2 (Homo sapiens, UniProt Q9Y5Y4)
# Protocol: as §1, §2
# Glutamate, NMDA, Glycine = target: T10, Glutamate, NMDA, Glycine (Rattus norvegicus, UniProt P35439)
# T10 construct: host or cells: tissue or cell homogenate (not specified)
# Protocol: as §1, §2
# Chemokine CCR1 = Chemokine CCR1 (Homo sapiens, UniProt P32246)
# Protocol: as §1, §2
# Opiate κ (OP2, KOP) = Opiate κ (OP2, KOP) (Homo sapiens, UniProt P41145)
# Protocol: as §1, §2
# Purinergic P2X = system: Purinergic P2X
# Protocol: as §1, §2
# Chain of Adrenergic α1B (P15823 whole entry): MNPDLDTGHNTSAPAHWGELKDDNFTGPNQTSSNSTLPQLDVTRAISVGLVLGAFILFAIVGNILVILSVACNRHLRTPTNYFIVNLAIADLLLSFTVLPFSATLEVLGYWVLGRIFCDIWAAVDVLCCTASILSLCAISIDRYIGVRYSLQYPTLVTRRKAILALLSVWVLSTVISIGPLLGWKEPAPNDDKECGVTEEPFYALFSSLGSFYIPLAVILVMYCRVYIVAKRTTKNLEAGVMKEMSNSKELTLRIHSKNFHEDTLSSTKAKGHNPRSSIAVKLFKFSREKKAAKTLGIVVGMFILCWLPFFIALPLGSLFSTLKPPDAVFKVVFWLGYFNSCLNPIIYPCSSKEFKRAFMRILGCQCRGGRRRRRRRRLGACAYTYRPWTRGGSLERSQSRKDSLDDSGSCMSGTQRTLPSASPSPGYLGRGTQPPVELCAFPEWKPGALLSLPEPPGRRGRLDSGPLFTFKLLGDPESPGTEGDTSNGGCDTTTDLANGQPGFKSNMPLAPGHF
# Chain of Chemokine CCR1 (P32246 whole entry): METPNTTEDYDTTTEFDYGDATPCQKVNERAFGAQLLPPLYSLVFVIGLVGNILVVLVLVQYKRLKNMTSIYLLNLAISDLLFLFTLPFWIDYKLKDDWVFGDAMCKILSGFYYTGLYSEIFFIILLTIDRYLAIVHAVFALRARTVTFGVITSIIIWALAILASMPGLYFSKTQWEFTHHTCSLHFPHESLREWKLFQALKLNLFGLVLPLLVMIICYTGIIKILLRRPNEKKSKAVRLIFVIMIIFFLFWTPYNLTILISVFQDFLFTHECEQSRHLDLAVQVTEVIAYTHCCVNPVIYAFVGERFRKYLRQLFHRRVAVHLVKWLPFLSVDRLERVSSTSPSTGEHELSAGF
# Chain of Leukotriene, Cysteinyl CysLT2 (Q9NS75 whole entry): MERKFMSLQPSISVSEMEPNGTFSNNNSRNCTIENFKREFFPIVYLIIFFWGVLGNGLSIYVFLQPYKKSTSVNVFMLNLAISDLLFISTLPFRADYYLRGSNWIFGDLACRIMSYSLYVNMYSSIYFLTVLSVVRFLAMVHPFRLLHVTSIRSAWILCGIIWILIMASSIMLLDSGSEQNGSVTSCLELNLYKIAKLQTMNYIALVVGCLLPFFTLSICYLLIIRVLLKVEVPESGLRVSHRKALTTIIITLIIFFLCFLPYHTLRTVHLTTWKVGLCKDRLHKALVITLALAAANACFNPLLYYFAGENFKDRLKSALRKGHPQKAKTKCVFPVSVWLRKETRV
# Chain of Platelet Activating Factor (PAF) (P25105 whole entry): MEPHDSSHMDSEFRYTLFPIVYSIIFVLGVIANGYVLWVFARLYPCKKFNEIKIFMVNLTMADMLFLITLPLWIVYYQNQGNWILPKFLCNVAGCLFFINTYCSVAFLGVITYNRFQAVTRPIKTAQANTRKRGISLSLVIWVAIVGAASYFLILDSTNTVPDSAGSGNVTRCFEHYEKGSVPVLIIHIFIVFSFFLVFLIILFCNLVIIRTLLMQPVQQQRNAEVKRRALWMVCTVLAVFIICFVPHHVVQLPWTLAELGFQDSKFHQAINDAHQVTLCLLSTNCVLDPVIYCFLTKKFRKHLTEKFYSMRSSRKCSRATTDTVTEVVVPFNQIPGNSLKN
# T6 sequence (P11229 whole entry): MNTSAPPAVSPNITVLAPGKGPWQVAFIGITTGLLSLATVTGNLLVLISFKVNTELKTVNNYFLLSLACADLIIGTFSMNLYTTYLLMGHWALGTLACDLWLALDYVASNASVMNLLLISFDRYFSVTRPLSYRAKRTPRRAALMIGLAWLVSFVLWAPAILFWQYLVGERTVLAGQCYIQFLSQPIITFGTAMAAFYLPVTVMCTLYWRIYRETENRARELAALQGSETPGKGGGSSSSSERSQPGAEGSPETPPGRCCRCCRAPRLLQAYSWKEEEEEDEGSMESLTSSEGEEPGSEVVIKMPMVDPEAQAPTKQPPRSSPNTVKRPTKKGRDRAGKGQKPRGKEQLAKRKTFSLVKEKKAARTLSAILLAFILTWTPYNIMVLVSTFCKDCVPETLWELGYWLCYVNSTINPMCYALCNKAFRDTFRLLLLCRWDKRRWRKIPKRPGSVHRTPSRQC
# T3 sequence (P47211 whole entry): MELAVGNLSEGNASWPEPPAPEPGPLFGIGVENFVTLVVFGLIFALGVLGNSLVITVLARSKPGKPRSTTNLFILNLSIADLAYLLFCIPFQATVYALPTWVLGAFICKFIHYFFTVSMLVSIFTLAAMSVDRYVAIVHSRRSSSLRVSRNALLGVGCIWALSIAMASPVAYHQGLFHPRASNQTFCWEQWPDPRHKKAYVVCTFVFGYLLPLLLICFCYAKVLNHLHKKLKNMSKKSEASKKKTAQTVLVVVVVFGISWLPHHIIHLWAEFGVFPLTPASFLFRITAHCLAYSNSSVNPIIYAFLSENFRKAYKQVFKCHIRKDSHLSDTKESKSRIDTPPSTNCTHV
# Chain of Interleukin IL-6 (P08887 20-468): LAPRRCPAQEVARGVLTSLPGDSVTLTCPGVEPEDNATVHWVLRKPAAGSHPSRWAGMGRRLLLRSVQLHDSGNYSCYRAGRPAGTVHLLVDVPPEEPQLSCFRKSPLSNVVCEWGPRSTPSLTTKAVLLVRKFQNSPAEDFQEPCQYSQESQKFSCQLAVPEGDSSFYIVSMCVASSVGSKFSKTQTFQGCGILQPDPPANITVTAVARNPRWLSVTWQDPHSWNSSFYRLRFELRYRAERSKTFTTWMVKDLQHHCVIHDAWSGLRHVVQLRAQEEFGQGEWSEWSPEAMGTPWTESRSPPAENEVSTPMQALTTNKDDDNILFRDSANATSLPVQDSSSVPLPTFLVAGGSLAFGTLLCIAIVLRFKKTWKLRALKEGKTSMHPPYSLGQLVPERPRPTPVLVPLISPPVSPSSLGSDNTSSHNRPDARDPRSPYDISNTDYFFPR
# Chain of Tachykinin NK1 (P25103 whole entry): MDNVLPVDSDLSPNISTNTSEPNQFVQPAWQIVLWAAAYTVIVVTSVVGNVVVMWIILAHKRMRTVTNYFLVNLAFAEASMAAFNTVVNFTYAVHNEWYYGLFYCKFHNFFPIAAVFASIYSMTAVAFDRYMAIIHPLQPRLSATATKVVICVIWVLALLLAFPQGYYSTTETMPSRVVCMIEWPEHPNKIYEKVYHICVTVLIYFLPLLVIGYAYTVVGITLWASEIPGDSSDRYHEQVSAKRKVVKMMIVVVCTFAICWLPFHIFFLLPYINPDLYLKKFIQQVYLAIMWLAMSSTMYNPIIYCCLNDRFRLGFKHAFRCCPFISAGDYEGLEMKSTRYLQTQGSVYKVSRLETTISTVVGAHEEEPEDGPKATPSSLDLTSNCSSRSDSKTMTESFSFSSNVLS
# Chain of Adrenergic α1A (P43140 whole entry): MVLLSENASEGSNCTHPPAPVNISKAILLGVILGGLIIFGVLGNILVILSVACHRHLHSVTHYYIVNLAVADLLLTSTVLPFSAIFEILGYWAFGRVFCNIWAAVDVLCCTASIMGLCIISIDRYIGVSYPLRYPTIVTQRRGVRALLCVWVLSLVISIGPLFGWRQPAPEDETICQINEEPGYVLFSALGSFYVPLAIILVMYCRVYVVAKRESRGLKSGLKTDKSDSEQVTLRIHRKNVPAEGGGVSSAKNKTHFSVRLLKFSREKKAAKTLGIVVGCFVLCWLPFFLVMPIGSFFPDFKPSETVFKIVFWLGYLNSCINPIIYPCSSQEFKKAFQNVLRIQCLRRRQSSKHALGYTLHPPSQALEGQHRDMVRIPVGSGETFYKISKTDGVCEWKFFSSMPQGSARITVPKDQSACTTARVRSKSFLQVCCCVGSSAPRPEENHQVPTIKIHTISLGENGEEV
# Chain of Adensonine A3 (P0DMS8 whole entry): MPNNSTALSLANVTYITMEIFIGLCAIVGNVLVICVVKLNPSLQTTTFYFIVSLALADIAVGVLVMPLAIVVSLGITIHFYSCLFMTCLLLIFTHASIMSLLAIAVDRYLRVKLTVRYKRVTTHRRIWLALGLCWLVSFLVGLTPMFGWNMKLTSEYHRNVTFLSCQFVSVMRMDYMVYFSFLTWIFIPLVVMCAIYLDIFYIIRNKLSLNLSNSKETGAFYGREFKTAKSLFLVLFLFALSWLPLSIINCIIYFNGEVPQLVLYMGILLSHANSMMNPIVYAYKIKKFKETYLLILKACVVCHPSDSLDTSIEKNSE
# T9 sequence (P48146 whole entry): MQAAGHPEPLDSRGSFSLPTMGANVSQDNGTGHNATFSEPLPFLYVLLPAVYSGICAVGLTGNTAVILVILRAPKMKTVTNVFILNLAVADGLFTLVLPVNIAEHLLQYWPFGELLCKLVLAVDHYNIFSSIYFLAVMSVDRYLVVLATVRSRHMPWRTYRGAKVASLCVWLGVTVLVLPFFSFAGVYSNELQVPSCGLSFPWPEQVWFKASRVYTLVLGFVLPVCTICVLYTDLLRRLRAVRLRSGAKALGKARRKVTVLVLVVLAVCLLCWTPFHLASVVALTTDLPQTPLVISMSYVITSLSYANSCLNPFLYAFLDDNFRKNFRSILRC
# Chain of Adensonine A1 (P30542 whole entry): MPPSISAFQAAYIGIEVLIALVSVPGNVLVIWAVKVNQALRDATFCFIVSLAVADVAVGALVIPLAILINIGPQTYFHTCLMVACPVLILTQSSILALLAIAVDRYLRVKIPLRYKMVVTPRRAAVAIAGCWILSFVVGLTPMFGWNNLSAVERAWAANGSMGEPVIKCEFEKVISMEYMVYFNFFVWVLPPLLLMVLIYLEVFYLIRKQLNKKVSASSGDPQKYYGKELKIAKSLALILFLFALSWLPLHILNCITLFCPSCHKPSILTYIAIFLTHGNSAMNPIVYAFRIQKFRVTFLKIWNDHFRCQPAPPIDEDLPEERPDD
# Chain of Sigma σ1 (Q99720 whole entry): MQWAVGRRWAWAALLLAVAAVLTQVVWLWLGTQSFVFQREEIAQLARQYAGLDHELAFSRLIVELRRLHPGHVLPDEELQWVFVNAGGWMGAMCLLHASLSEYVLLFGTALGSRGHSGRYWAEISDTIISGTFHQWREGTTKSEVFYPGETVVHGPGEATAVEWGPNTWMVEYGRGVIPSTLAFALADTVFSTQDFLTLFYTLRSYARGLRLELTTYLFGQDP
structure (smiles),measurement,setting,value
"C[C@@H]1CC[C@@]2(OC1)O[C@H]1C[C@H]3[C@@H]4CC[C@@H]5C[C@@H](O)CC[C@]5(C)[C@H]4CC[C@]3(C)[C@H]1[C@@H]2C [Smilagenin, smilagenin]",Effect (%),[1],NS (NS = No significant response. Significance was taken as ≧30% stimulation or inhibition)
same,Effect (%),Adrenergic α1A,NS (NS = No significant response. Significance was taken as ≧30% stimulation or inhibition)
same,Effect (%),GABAB1B,NS (NS = No significant response. Significance was taken as ≧30% stimulation or inhibition)
same,Effect (%),Galanin GAL1,NS (NS = No significant response. Significance was taken as ≧30% stimulation or inhibition)
same,Effect (%),Histamine H4,NS (NS = No significant response. Significance was taken as ≧30% stimulation or inhibition)
same,Effect (%),Calcium Channel N-Type,NS (NS = No significant response. Significance was taken as ≧30% stimulation or inhibition)
same,Effect (%),Chemokine CXCR1 (IL-8RB),NS (NS = No significant response. Significance was taken as ≧30% stimulation or inhibition)
same,Effect (%),Dopamine D5,NS (NS = No significant response. Significance was taken as ≧30% stimulation or inhibition)
same,Effect (%),GABAB1A,NS (NS = No significant response. Significance was taken as ≧30% stimulation or inhibition)
same,Effect (%),Urotensin II,NS (NS = No significant response. Significance was taken as ≧30% stimulation or inhibition)
same,Effect (%),Muscarinic M1,NS (NS = No significant response. Significance was taken as ≧30% stimulation or inhibition)
same,Effect (%),Adensonine A1,NS (NS = No significant response. Significance was taken as ≧30% stimulation or inhibition)
same,Effect (%),Adensonine A3,NS (NS = No significant response. Significance was taken as ≧30% stimulation or inhibition)
same,Effect (%),Interleukin IL-6,NS (NS = No significant response. Significance was taken as ≧30% stimulation or inhibition)
same,Effect (%),[2],NS (NS = No significant response. Significance was taken as ≧30% stimulation or inhibition)
same,Effect (%),Tachykinin NK2,NS (NS = No significant response. Significance was taken as ≧30% stimulation or inhibition)
same,Effect (%),[3],NS (NS = No significant response. Significance was taken as ≧30% stimulation or inhibition)
same,Effect (%),Oestrogen (ERα),NS (NS = No significant response. Significance was taken as ≧30% stimulation or inhibition)
same,Effect (%),Adrenergic α1B,NS (NS = No significant response. Significance was taken as ≧30% stimulation or inhibition)
same,Effect (%),Leptin,NS (NS = No significant response. Significance was taken as ≧30% stimulation or inhibition)
same,Effect (%),Adrenomedullin AM1,NS (NS = No significant response. Significance was taken as ≧30% stimulation or inhibition)
same,Effect (%),[4],NS (NS = No significant response. Significance was taken as ≧30% stimulation or inhibition)
same,Effect (%),Orphanin ORL1,NS (NS = No significant response. Significance was taken as ≧30% stimulation or inhibition)
same,Effect (%),[5],NS (NS = No significant response. Significance was taken as ≧30% stimulation or inhibition)
same,Effect (%),Tachykinin NK1,NS (NS = No significant response. Significance was taken as ≧30% stimulation or inhibition)
same,Effect (%),[6],NS (NS = No significant response. Significance was taken as ≧30% stimulation or inhibition)
same,Effect (%),[7],NS (NS = No significant response. Significance was taken as ≧30% stimulation or inhibition)
same,Effect (%),Adrenergic β1,NS (NS = No significant response. Significance was taken as ≧30% stimulation or inhibition)
same,Effect (%),Sigma σ1,NS (NS = No significant response. Significance was taken as ≧30% stimulation or inhibition)
same,Effect (%),Cannabinoid CB2,NS (NS = No significant response. Significance was taken as ≧30% stimulation or inhibition)
same,Effect (%),Neuropeptide Y Y2,NS (NS = No significant response. Significance was taken as ≧30% stimulation or inhibition)
same,Effect (%),Prostanoid CRTH2,NS (NS = No significant response. Significance was taken as ≧30% stimulation or inhibition)
same,Effect (%),"Glutamate, NMDA, Glycine",NS (NS = No significant response. Significance was taken as ≧30% stimulation or inhibition)
same,Effect (%),Chemokine CCR1,NS (NS = No significant response. Significance was taken as ≧30% stimulation or inhibition)
same,Effect (%),"Opiate κ (OP2, KOP)",NS (NS = No significant response. Significance was taken as ≧30% stimulation or inhibition)
same,Effect (%),Purinergic P2X,NS (NS = No significant response. Significance was taken as ≧30% stimulation or inhibition)

# Source: patent US20120034193A1, “TREATMENT OF NEUROTROPHIC FACTOR MEDIATED DISORDERS” (priority 2009, published 2012)
